Laboratory results: patent US20150065717A1, “NIPECOTIC ACID DERIVATIVE AND USE THEREOF FOR MEDICAL PURPOSES” (Toray Industries, Inc., priority 2012, published 2015)

Experiments:
[1] = test system: rat monocrotaline-administered pulmonary hypertension model; assay: Rat monocrotaline-administered pulmonary hypertension model, administration from advanced stage; type: in vivo, rat (Wistar strain); conditions: 10 mg/kg orally once per day for 18 or 19 days from Day 10 after monocrotaline; t-test p<0.05; FIG. 7
Method: Rats (Wistar strain, male, 5 weeks old; JAPAN SLC, Inc.) with pulmonary hypertension induced by subcutaneous administration of an aqueous monocrotaline (Sigma Corporation) solution (60 mg/kg) to the back were provided as “group with induced pulmonary hypertension”. On the other hand, rats to which water for injection was similarly administered were provided as “normal group”.
To rats in the group with induced pulmonary hypertension, Example Compound 1 (3 or 10 mg/kg) or a positive control compound tadalafil (10 mg/kg) was orally administered once per day. Administration of Example Compound 1 (3 or 10 mg/kg) was carried out for 18 or 19 days from Day 10 after the administration of monocrotaline. Administration of tadalafil (10 mg/kg) was carried out for 28 or 29 days from the day of administration of monocrotaline. […]
On the last day of administration of the test compound, blood was collected from the abdominal vena cava of each rat under anesthesia, and the rat was then euthanized, followed by removal of the heart for measurement of the wet weights of the right ventricle, left ventricle and septum to determine the right ventricular weight ratio (right ventricular weight/(septum weight+left ventricular weight)). The 14,15-DHET concentration in the collected blood was measured by the ELISA method. […]

[2] = test system: rat monocrotaline-administered pulmonary hypertension model; assay: Action on systemic blood pressure in rat monocrotaline-administered pulmonary hypertension model, single dose; type: in vivo, rat (SD strain); conditions: single oral dose of 10 mg/kg on day 9 after monocrotaline; Hour 1, 2, 3, 4, 5 and 6 after administration
Method: Example Compound 1 was administered to monocrotaline-administered pulmonary hypertension model rats in a single dose, and the action of the nipecotic acid derivative (I) or a pharmaceutically acceptable salt thereof on the systemic blood pressure from immediately after the administration was evaluated.
Pulmonary hypertension was induced in Rats (SD strain, male, 11 weeks old; Charles River Laboratories Japan, Inc.) by subcutaneous administration of an aqueous monocrotaline (Sigma Corporation) solution (60 mg/kg) to the back.
On Day 7 after administration of monocrotaline, the rats with induced pulmonary hypertension were anesthetized, and hair in the femoral region and the nape was removed, followed by disinfection of the operative field using Isodine solution. […] The blood pressure was analyzed after amplification by Blood Pressure Amplifier, and the heart rate was analyzed via Heart Rate Counter using the pulse waveform as a trigger. […] From immediately after administration of Example Compound 1 or 0.5% aqueous methyl cellulose solution supplemented with 0.5% Tween 80, the mean systemic blood pressure was measured at Hour 1, 2, 3, 4, 5 and 6 after administration.

## CCC(=O)NC1(C(=O)N2CCC[C@@H](C(=O)NCc3ccc(C#N)cc3OC(F)(F)F)C2)CCC1 [Example Compound 1, (R)—N-(4-cyano-2-(trifluoromethoxy)benzyl)-1-(1-propionamidocyclobutanecarbonyl)piperidine-3-carboxamide]
[1]
  right ventricular weight ratio vs pulmonary hypertension control group: statistically significantly lower
[2]
  mean systemic blood pressure vs pulmonary hypertension control group: no significant difference
